Experimental data as given in PubChem BioAssay AID200 (DTP/NCI, 2004).
“And” between values parts separate entries of the source, which are not always exact repeats. Equal values may be shown once. Inconclusive results and toxic doses are left out.

System: B6C3F1 mice, B16 melanoma ip, median survival T/C
Test: NCI In Vivo Anticancer Drug Screen. Data for tumor model B16 Melanoma (intraperitoneal) in B6C3F1 mice
Settings: endpoint: median survival time, schedule: Q01DX009 (ip), higher = longer survival
Summary of the method: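 Values are T/C ratios: the measurement in treated animals divided by that in vehicle-treated controls, using survival or tumor size in mice carrying transplantable tumors.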

[1] = dose: 25.0 mg/kg/injection, vehicle: saline with Tween-80
[2] = dose: 50.0 mg/kg/injection, vehicle: saline with Tween-80
[3] = dose: 100.0 mg/kg/injection, vehicle: saline with Tween-80
[4] = dose: 200.0 mg/kg/injection, vehicle: saline with Tween-80
[5] = dose: 12.5 mg/kg/injection, vehicle: Klucel (hydroxypropylcellulose) (HPC)
[6] = dose: 25.0 mg/kg/injection, vehicle: Klucel (hydroxypropylcellulose) (HPC)
[7] = dose: 50.0 mg/kg/injection, vehicle: Klucel (hydroxypropylcellulose) (HPC)
[8] = dose: 100.0 mg/kg/injection, vehicle: Klucel (hydroxypropylcellulose) (HPC)
[9] = dose: 200.0 mg/kg/injection, vehicle: Klucel (hydroxypropylcellulose) (HPC)
[10] = dose: 6.25 mg/kg/injection, vehicle: Klucel (hydroxypropylcellulose) (HPC)

In the case of `O=C/C=C/c1cccc([N+](=O)[O-])c1`, the T/C [1] is reported as 107 % of control, the T/C [2] is reported as 116 % of control and the T/C [3] is reported as 118 % of control. For the same molecule, the T/C [4] was 124 % of control.

`COc1cc2c(c(OC)c1OC)-c1cccc(=O)cc1C(NC(C)=O)CC2` (stereo not drawn) was tested, and the T/C (dose: 1.25 mg/kg/injection, vehicle: water) was 98 % of control, the T/C (dose: 2.5 mg/kg/injection, vehicle: saline) was 97 % of control and the T/C (dose: 2.5 mg/kg/injection, vehicle: water) was 102 % of control. For the same molecule, the T/C (dose: 5.0 mg/kg/injection, vehicle: saline) was 100 % of control, the T/C (dose: 5.0 mg/kg/injection, vehicle: water) was 97 % of control and the T/C (dose: 10.0 mg/kg/injection, vehicle: saline) was 116 % of control. For the same molecule, the T/C (dose: 10.0 mg/kg/injection, vehicle: water) was 96 % of control, the T/C (dose: 20.0 mg/kg/injection, vehicle: saline) was 99 % of control and the T/C (dose: 20.0 mg/kg/injection, vehicle: water) was 103 % of control. The T/C (dose: 40.0 mg/kg/injection, vehicle: saline) was 103 % of control.

In the case of `S=C(Nc1ccc(Cl)c(Cl)c1)N1c2ccccc2-n2cccc2C1c1cccnc1` (stereo not drawn), the T/C [5] is reported as 90 % of control and 98 % of control and 102 % of control, the T/C (dose: 12.5 mg/kg/injection, vehicle: saline with Tween-80) is reported as 99 % of control and the T/C [6] is reported as 91 % of control and 94 % of control and 98 % of control. The T/C [1] was 102 % of control, the T/C [7] was 90 % of control and 104 % of control and 107 % of control and the T/C [2] was 99 % of control. The T/C [8] was 88 % of control and 91 % of control and 97 % of control, the T/C [3] was 107 % of control and the T/C [9] was 114 % of control and 90 % of control (2×). For the same molecule, the T/C [4] was 102 % of control and the T/C (dose: 400.0 mg/kg/injection, vehicle: Klucel (hydroxypropylcellulose) (HPC)) was 91 % of control.

For `CC1(C)CC2(C)OC2C2(C1)N=NC(=Nc1ccccc1)O2` (stereo not drawn), the T/C [1] was 96 % of control, the T/C [2] was 100 % of control and the T/C [3] was 89 % of control.

For `CCCOC(=O)c1nc(N(CC2CCCCC2)C(=O)NC)sc1/N=C/c1ccccc1`, the T/C (dose: 9.0 mg/kg/injection, vehicle: saline with Tween-80) was 96 % of control, the T/C (dose: 18.0 mg/kg/injection, vehicle: saline with Tween-80) was 86 % of control and the T/C (dose: 36.0 mg/kg/injection, vehicle: saline with Tween-80) was 86 % of control.

With `O=CC(O)C(O)C(O)C(O)C(=O)O.[NH-]C1CCCCC1[NH-].[Pt+2]` (stereo not drawn) the T/C (dose: 0.19 mg/kg/injection, vehicle: saline) was 108 % of control, the T/C (dose: 1.5 mg/kg/injection, vehicle: saline) was 177 % of control and the T/C (dose: 3.0 mg/kg/injection, vehicle: saline) was 187 % of control.

In the case of `CC(C)(C)NC(C1=CC(C)(C)c2ccccc2C1=O)c1ccccc1` (stereo not drawn), the T/C [7] is reported as 99 % of control, the T/C [8] is reported as 88 % of control and the T/C [9] is reported as 98 % of control.

In the case of `C[C@@H]1C[C@@H]([C@H](O)CC2CC(=O)NC(=O)C2)C(=O)[C@@H](C)C1`, the T/C (dose: 12.5 mg/kg/injection, vehicle: saline) is reported as 105 % of control, the T/C (dose: 25.0 mg/kg/injection, vehicle: saline) is reported as 111 % of control and the T/C (dose: 50.0 mg/kg/injection, vehicle: saline) is reported as 106 % of control.

With `CC(C)(C)OC(=O)NC(CCCCNC(=O)C(F)(F)F)C(=O)O` (stereo not drawn) the T/C [10] was 109 % of control, the T/C [5] was 99 % of control and the T/C [6] was 89 % of control and 99 % of control. For the same molecule, the T/C [7] was 88 % of control and 96 % of control and the T/C [8] was 96 % of control.

With `NC(CCl)=NCC12CC3CC(CC(C3)C1)C2` the T/C (dose: 1.5 mg/kg/injection, vehicle: Klucel (hydroxypropylcellulose) (HPC)) was 92 % of control, the T/C (dose: 3.0 mg/kg/injection, vehicle: Klucel (hydroxypropylcellulose) (HPC)) was 104 % of control and the T/C (dose: 3.13 mg/kg/injection, vehicle: Klucel (hydroxypropylcellulose) (HPC)) was 92 % of control. The T/C (dose: 6.0 mg/kg/injection, vehicle: Klucel (hydroxypropylcellulose) (HPC)) was 110 % of control and 101 % of control, the T/C [10] was 101 % of control and the T/C (dose: 12.0 mg/kg/injection, vehicle: Klucel (hydroxypropylcellulose) (HPC)) was 114 % of control and 104 % of control. For the same molecule, the T/C [5] was 101 % of control and the T/C [6] was 112 % of control.
